# According to PubChem BioAssay (NCI):
#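 Growth conditions: 96-well plates. Treatment: test compound, 48 hours, 5 concentrations. Analysis: linear interpolation between bracketing concentrations; unreached endpoints set to highest concentration. TGI: total growth inhibition.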
# Columns and labels:
# Experiment in all cases: NCI tumour cell line growth inhibition, 48 h
# [1] = system: M19-MEL melanoma
# [2] = system: HCT-15 colon
# [3] = system: DMS 114 small cell lung
# [4] = system: OVCAR-5 ovarian
# [5] = system: HL-60(TB) leukemia
# [6] = system: MALME-3M melanoma
# [7] = system: ACHN renal
# [8] = system: UACC-62 melanoma
# [9] = system: SF-295 CNS
# [10] = system: HCC-2998 colon
# [11] = system: SK-MEL-5 melanoma
# [12] = system: OVCAR-4 ovarian
# [13] = system: HT29 colon
# [14] = system: RXF 393 renal
# [15] = system: MOLT-4 leukemia
# [16] = system: UO-31 renal
# [17] = system: IGROV1 ovarian
# [18] = system: A549 NSCLC
# [19] = system: SNB-19 CNS
# [20] = system: SN12C renal
# [21] = system: LOX IMVI melanoma
# [22] = system: NCI-H226 lung
# [23] = system: KM12 colon
# [24] = system: U251 CNS
# [25] = system: EKVX NSCLC
# [26] = system: NCI-H460 lung
# [27] = system: 786-0 renal
# [28] = system: SF-539 CNS
# [29] = system: SK-MEL-2 melanoma
# [30] = system: SW-620 colon
# [31] = system: OVCAR-3 ovarian
# [32] = system: LXFL 529 NSCLC
# [33] = system: SK-MEL-28 melanoma
# [34] = system: HOP-62 NSCLC
# [35] = system: SNB-75 CNS
# [36] = system: HCT-116 colon
# [37] = system: SR leukemia
# [38] = system: SK-OV-3 ovarian
# [39] = system: OVCAR-8 ovarian
# [40] = system: SF-268 CNS
# [41] = system: K-562 leukemia
# [42] = system: M14 melanoma
# [43] = system: UACC-257 melanoma
# [44] = system: DMS 273 small cell lung
# [45] = system: CAKI-1 renal
# [46] = system: NCI-H522 lung
# [47] = system: RPMI-8226 leukemia
# [48] = system: A498 renal
# [49] = system: KM20L2 colon
# [50] = system: HOP-92 NSCLC
# [51] = system: HOP-18 NSCLC
# [52] = system: COLO 205 colon
# [53] = system: DLD-1 colon
# [54] = system: NCI-H23 lung
# [55] = system: SNB-78 CNS
# [56] = system: TK-10 renal
# [57] = system: CCRF-CEM leukemia
structure (smiles),measurement,setting,value
CCSc1nc2n(c(=S)n1)CCN2C,TGI,[1],29.4 µM
same,TGI,[2],40.6 µM
same,TGI,[3],39.4 µM
same,TGI,[4],42.7 µM
same,TGI,[5],46.1 µM
same,TGI,[6],36.2 µM
same,TGI,[7],60.6 µM
same,TGI,[8],25.8 µM
same,TGI,[9],41.2 µM
same,TGI,[10],30.3 µM
same,TGI,[11],30 µM
same,TGI,[12],44.5 µM
same,TGI,[13],37.2 µM
same,TGI,[14],23.7 µM
same,TGI,[15],39.1 µM
same,TGI,[16],58.9 µM
same,TGI,[17],45.9 µM
same,TGI,[18],61.3 µM
same,TGI,[19],37.8 µM
same,TGI,[20],47.8 µM
same,TGI,[21],34.8 µM
same,TGI,[22],42.8 µM
same,TGI,[23],52.3 µM
same,TGI,[24],41.2 µM
same,TGI,[25],69.6 µM
same,TGI,[26],39.7 µM
same,TGI,[27],52 µM
same,TGI,[28],58.9 µM
same,TGI,[29],41.7 µM
same,TGI,[30],56.9 µM
same,TGI,[31],49.3 µM
same,TGI,[32],29.5 µM
same,TGI,[33],41.3 µM
same,TGI,[34],68.8 µM
same,TGI,[35],30.8 µM
same,TGI,[36],33.7 µM
same,TGI,[37],29.9 µM
same,TGI,[38],50.2 µM
same,TGI,[39],64.7 µM
same,TGI,[40],65.8 µM
same,TGI,[41],79.5 µM
same,TGI,[42],31.5 µM
same,TGI,[43],25.5 µM
same,TGI,[44],33.6 µM
same,TGI,[45],55.4 µM
same,TGI,[46],19.3 µM
same,TGI,[47],61.7 µM
same,TGI,[48],47.5 µM
same,TGI,[49],52.9 µM
CCOC(=O)NC(=O)c1cn(CCSCCOC(=O)NCCCCCCNC(=O)OCCSCCn2cc(C(=O)NC(=O)OCC)c(=O)[nH]c2=O)c(=O)[nH]c1=O,TGI,[1],> 100 µM
same,TGI,[50],> 100 µM
same,TGI,[2],> 100 µM
same,TGI,[3],> 100 µM
same,TGI,[51],> 100 µM
same,TGI,[5],> 100 µM
same,TGI,[6],> 100 µM
same,TGI,[7],> 100 µM
same,TGI,[8],> 100 µM
same,TGI,[52],> 100 µM
same,TGI,[53],> 100 µM
same,TGI,[9],> 100 µM
same,TGI,[11],> 100 µM
same,TGI,[12],> 100 µM
same,TGI,[13],> 100 µM
same,TGI,[14],> 100 µM
same,TGI,[54],> 100 µM
same,TGI,[16],> 100 µM
same,TGI,[17],> 100 µM
same,TGI,[18],> 100 µM
same,TGI,[19],> 100 µM
same,TGI,[20],> 100 µM
same,TGI,[21],> 100 µM
same,TGI,[24],> 100 µM
same,TGI,[25],> 100 µM
same,TGI,[26],> 100 µM
same,TGI,[55],> 100 µM
same,TGI,[28],> 100 µM
same,TGI,[30],> 100 µM
same,TGI,[31],> 100 µM
same,TGI,[56],> 100 µM
same,TGI,[33],> 100 µM
same,TGI,[34],> 100 µM
same,TGI,[35],> 100 µM
same,TGI,[36],> 100 µM
same,TGI,[57],> 100 µM
same,TGI,[38],> 100 µM
same,TGI,[39],> 100 µM
same,TGI,[41],> 100 µM
same,TGI,[42],> 100 µM
same,TGI,[43],> 100 µM
same,TGI,[44],> 100 µM
same,TGI,[45],> 100 µM
same,TGI,[49],> 100 µM
